Laboratory results from BindingDB's records for doi:10.1124/dmd.112.048355 (Glaxosmithkline, 2013).
pEC50: −log10 of the molar value.

What follows are compounds tested against Methionine aminopeptidase 2 (Homo sapiens) (UniProt P50579) (assay: Inhibition of MetAP2 activity in HUVEC assessed as inhibition of cell proliferation by MTT assay).
Methionine aminopeptidase 2 (Homo sapiens), sequence (P50579 whole entry, looked up): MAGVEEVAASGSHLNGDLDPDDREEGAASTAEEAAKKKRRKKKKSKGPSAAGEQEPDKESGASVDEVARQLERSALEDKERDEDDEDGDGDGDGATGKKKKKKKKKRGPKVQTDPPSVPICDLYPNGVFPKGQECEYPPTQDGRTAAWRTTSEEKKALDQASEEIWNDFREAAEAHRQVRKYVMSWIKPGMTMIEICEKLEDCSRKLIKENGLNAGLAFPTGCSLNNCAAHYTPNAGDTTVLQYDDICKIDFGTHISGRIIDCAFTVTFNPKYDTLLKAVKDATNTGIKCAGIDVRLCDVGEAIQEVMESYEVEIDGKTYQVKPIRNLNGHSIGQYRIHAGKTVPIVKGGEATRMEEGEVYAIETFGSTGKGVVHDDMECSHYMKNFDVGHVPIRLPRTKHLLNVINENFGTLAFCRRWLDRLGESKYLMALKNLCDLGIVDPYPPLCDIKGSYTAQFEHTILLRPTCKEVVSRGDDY

SMILES	pEC50
CO[C@@H]1[C@H](OC(=O)N[C@@H](C(N)=O)C(C)C)CC[C@]2(CO2)[C@H]1[C@@]1(C)O[C@@H]1C/C=C(\C)CO	8.15
CO[C@@H]1[C@H](OC(=O)N[C@@H](C(N)=O)C(C)(C)O)CC[C@]2(CO2)[C@H]1[C@@]1(C)O[C@@H]1C[C@@H]1OC1(C)C	7.92
CO[C@@H]1[C@H](OC(=O)N[C@@H](C(N)=O)C(C)(C)O)CC[C@]2(CO2)[C@H]1[C@@]1(C)O[C@@H]1C[C@H]1OC1(C)C	8.06

The next compounds have a higher pEC50 than those just listed; values first:

pEC50	SMILES
8.19	CO[C@@H]1[C@H](OC(=O)N[C@@H](C(N)=O)C(C)C)CC[C@]2(CO2)[C@H]1[C@@]1(C)O[C@@H]1C[C@@H]1OC1(C)C
10.02	CO[C@@H]1[C@H](OC(=O)N[C@@H](C(N)=O)C(C)C)CC[C@]2(CO2)[C@H]1[C@@]1(C)O[C@@H]1CC=C(C)C
8.89	CO[C@@H]1[C@H](OC(=O)N[C@@H](C(N)=O)C(C)C)CC[C@]2(CO2)[C@H]1[C@@]1(C)O[C@@H]1C[C@H]1OC1(C)C
9.52	CO[C@@H]1[C@H](OC(=O)N[C@@H](C(N)=O)C(C)(C)O)CC[C@]2(CO2)[C@H]1[C@@]1(C)O[C@@H]1CC=C(C)C
